Measurements published in ChEMBL document CHEMBL1143749, “A new therapeutic approach in Alzheimer disease: some novel pyrazole derivatives as dual MAO-B inhibitors and antiinflammatory analgesics” (Bioorg Med Chem, 2007).

Legend:
[1] = test system: Mus musculus; assay: Inhibition of carrageenan-induced hind paw oedema in Swiss Albino mouse at 100 mg/kg, po after 90 mins relative to control; type: functional; conditions: for inhibition in vivo at 100 mg/kg: Mus musculus, Swiss Albino, po, 1.5 h
[2] = test system: Mus musculus; assay: Inhibition of carrageenan-induced hind paw oedema in Swiss Albino mouse at 100 mg/kg, po after 270 mins relative to control; type: functional; conditions: for inhibition in vivo at 100 mg/kg: Mus musculus, Swiss Albino, po, 4.5 h
[3] = molecular target: T1, Amine oxidase [flavin-containing] B (Rattus norvegicus, UniProt P19643); assay: Inhibition of rat liver MAOB after 60 mins pre-incubation
T1 sequence (P19643 whole entry): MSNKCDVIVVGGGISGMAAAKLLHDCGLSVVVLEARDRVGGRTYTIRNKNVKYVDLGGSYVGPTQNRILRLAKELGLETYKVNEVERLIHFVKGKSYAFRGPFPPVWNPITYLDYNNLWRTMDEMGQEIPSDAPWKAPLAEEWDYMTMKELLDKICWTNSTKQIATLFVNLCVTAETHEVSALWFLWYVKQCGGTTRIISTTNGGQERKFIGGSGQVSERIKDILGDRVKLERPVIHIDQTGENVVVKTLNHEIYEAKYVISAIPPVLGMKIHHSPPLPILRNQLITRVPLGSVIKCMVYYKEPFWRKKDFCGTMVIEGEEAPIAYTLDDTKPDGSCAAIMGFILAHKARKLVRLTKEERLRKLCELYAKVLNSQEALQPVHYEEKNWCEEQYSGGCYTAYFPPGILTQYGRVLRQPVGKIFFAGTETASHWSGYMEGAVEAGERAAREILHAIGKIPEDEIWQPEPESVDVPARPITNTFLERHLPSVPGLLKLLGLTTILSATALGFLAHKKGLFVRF

[4] = test system: Mus musculus; assay: Inhibition of p-Benzoquinone-induced writhings in Swiss Albino mouse at 100 mg/kg, po relative to control; type: functional; conditions: for inhibition in vivo at 100 mg/kg: Mus musculus, Swiss Albino, po
[5] = molecular target: T2, Amine oxidase [flavin-containing] A (Rattus norvegicus, UniProt P21396); assay: Inhibition of rat liver MAOA after 60 mins pre-incubation
T2 sequence (P21396 whole entry): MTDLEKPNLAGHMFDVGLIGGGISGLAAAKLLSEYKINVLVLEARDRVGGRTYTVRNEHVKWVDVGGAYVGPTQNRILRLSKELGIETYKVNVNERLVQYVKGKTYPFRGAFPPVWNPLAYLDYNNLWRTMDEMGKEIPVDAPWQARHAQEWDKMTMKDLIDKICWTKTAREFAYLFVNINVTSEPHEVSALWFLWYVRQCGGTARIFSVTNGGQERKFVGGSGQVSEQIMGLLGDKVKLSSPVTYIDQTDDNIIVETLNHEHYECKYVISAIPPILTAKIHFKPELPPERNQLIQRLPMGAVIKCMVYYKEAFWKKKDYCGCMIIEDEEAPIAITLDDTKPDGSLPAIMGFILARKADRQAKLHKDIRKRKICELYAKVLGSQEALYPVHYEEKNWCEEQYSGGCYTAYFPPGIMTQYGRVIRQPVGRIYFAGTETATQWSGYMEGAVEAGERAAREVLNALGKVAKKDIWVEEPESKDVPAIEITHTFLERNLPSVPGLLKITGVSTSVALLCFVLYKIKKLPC

[6] = test system: Mus musculus; assay: Toxicity in Swiss Albino mouse assessed as ulcerogenic abdomen lesions at 100 mg/kg, po; type: organism-based; parameters: dose 100 mg/kg, route oral; conditions: in vivo
[7] = test system: Mus musculus; assay: Inhibition of carrageenan-induced hind paw oedema in Swiss Albino mouse at 100 mg/kg, po after 180 mins relative to control; type: functional; conditions: for inhibition in vivo at 100 mg/kg: Mus musculus, Swiss Albino, po, 3 h
[8] = test system: Mus musculus; assay: Inhibition of carrageenan-induced hind paw oedema in Swiss Albino mouse at 100 mg/kg, po after 360 mins relative to control; type: functional; conditions: for inhibition in vivo at 100 mg/kg: Mus musculus, Swiss Albino, po, 6 h
[9] = test system: Mus musculus; assay: Analgesic activity against p-Benzoquinone-induced writhings in Swiss Albino mouse assessed as number writhings at 100 mg/kg, po; type: functional
[10] = test system: Mus musculus; assay: Inhibition of acetic acid-induced capillary permeability in Swiss Albino mouse at 100 mg/kg, po; type: functional
[11] = molecular target: T2, Amine oxidase [flavin-containing] A; assay: Inhibition of rat liver MAOA
[12] = molecular target: T1, Amine oxidase [flavin-containing] B; assay: Inhibition of rat liver MAOB
[13] = test system: Mus musculus; assay: Inhibition of acetic acid-induced capillary permeability in Swiss Albino mouse at 10 mg/kg, po; conditions: read-out: Inhibition

| SMILES | inhibition in vivo at 100 mg/kg [1] [%] | inhibition in vivo at 100 mg/kg [2] [%] | IC50 [3] [µM] | inhibition in vivo at 100 mg/kg [4] [%] | IC50 [5] [µM] | Activity [6] | inhibition in vivo at 100 mg/kg [7] [%] | inhibition in vivo at 100 mg/kg [8] [%] | writhing count [9] [writhings] | Inhibition [1] [%] | Inhibition [2] [%] | Inhibition [4] [%] | Inhibition [7] [%] | Inhibition [8] [%] | inhibition in vivo at 100 mg/kg [10] [%] | Ki [11] [µM] | Ki [12] [µM] | Activity [9] | inhibition in vivo at 10 mg/kg [13] [%] |
| --- | --- | --- | --- | --- | --- | --- | --- | --- | --- | --- | --- | --- | --- | --- | --- | --- | --- | --- | --- |
| CCNC(=S)N1N=C(c2ccc(C)cc2)CC1c1ccc[nH]1 (stereo not drawn) | 4.9 | 12.4 | 369 | 15.4 | 329 | Non-toxic | 10.5 | 16.3 | 41.3 | – | – | – | – | – | – | – | – | – | – |
| Cc1ccc(C2=NN(C(=S)Nc3ccccc3)C(c3ccc[nH]3)C2)cc1 (stereo not drawn) | – | – | 351 | – | 300 | Non-toxic | – | – | 45.2 | 9.1 | 6.1 | 7.4 | 13.1 | 11.8 | – | – | – | – | – |
| CNC(=S)N1N=C(c2ccc(Cl)cc2)CC1c1ccc[nH]1 (stereo not drawn) | – | 7.2 | 416 | 22.5 | 11.2 | – | 6.6 | 1.9 | 37.8 | – | – | – | – | – | 20.7 | 13.2 | – | – | – |
| CCCNC(=S)N1N=C(c2ccc(Cl)cc2)CC1c1ccc[nH]1 (stereo not drawn) | 19.8 | 23.9 | 421 | 57.9 | 29.2 | Non-toxic | 25.2 | 28.1 | 20.5 | – | – | – | – | – | 28.3 | 33.2 | – | – | – |
| CCNC(=S)N1N=C(c2ccc(OC)cc2)CC1c1ccc[nH]1 (stereo not drawn) | 23.2 | 18.9 | 22.1 | 56.6 | 400 | Non-toxic | 22.7 | 27.6 | 21.2 | – | – | – | – | – | 25.9 | – | 24 | – | – |
| CCCNC(=S)N1N=C(c2ccc(OC)cc2)CC1c1ccc[nH]1 (stereo not drawn) | 20.3 | 22.6 | 29.1 | 60 | 409 | Non-toxic | 23.6 | 32.8 | 19.5 | – | – | – | – | – | 34.8 | – | 33.7 | – | – |
| CCNC(=S)N1N=C(c2ccc(Cl)cc2)CC1c1ccc[nH]1 (stereo not drawn) | 16.1 | 20.6 | 450 | 55.9 | 20.2 | Non-toxic | 21.3 | 24 | 21.5 | – | – | – | – | – | 23.5 | 26.9 | – | – | – |
| CNC(=S)N1N=C(c2ccc(OC)cc2)CC1c1ccc[nH]1 (stereo not drawn) | 14.2 | 10.5 | 12.5 | 19.7 | 430 | Non-toxic | 14.7 | 17.7 | 39.2 | – | – | – | – | – | – | – | 12.5 | – | – |
| CNC(=S)N1N=C(c2ccc(C)cc2)CC1c1ccc[nH]1 (stereo not drawn) | 13.2 | 12.2 | 349 | 18.6 | 295 | Non-toxic | 11.2 | 16.3 | 39.7 | – | – | – | – | – | – | – | – | – | – |
| CCCNC(=S)N1N=C(c2ccc(C)cc2)CC1c1ccc[nH]1 (stereo not drawn) | 14.6 | 15.7 | 389 | 48.2 | 369 | Non-toxic | 20.9 | 22.7 | 25.3 | – | – | – | – | – | – | – | – | – | – |
| COc1ccc(C2=NN(C(=S)Nc3ccccc3)C(c3ccc[nH]3)C2)cc1 (stereo not drawn) | 20.7 | 16.5 | 30.1 | 48.4 | 431 | Non-toxic | 22.6 | 21.6 | 25.2 | – | – | – | – | – | 22.3 | – | 37.1 | – | – |
| Cl.S=C(Nc1ccccc1)N1N=C(c2ccc(Cl)cc2)CC1c1ccc[nH]1 (stereo not drawn) | – | – | 441 | – | 59.3 | Non-toxic | – | – | – | – | – | – | – | – | – | 60.8 | – | – | – |
| CC(=O)Oc1ccccc1C(=O)O [ASPIRIN] | – | – | – | 54.3 | – | – | – | – | – | – | – | – | – | – | – | – | – | 22.3 | – |
| COc1ccc2c(c1)c(CC(=O)O)c(C)n2C(=O)c1ccc(Cl)cc1 [INDOMETHACIN] | 32.3 | 33.6 | – | – | – | – | 37.1 | 42.2 | – | – | – | – | – | – | – | – | – | – | 48.1 |
| C#CCN(C)Cc1ccccc1 [PARGYLINE] | – | – | 2.85 | – | 390 | – | – | – | – | – | – | – | – | – | – | – | – | – | – |
